Key:
Type in all cases: cell-based
[1] = test system: AGS cell strain; experiment: Cell growth test (CCK-8 assay) after transfection of BART miRNA mimics; conditions: for cell growth depending on mimic concentration (onset of inhibition): 1, 3, 10 and 30 nM; for Relative Cell Growth: relative to scrambled control (=1)
Protocol: An AGS cell strain (Korean Cell Line Bank), which is a stomach cancer cell strain, was cultured in an RPMI1640 (Gibco) culture medium including 10% fetal bovine serum. Mature type synthesized BART miRNAs were transfected to the AGS cell strain by using G-fectin (Genolution) according to a protocol of the manufacture.
To investigate the effect of individual EBV BART miRNAs on the AGS cell strain, the synthesized miRNAs were transfected to the AGS cell strain and, after 72 hours, cells were counted by CCK-8 assay.
Immediately after the AGS cell strain, which is an EBV-negative cell strain, was divided into 96-well plate having 1×10^3 cells/well, a synthesized miRNA (10 nM) was transfected by using G-fectin. After the transfection, according to the experimental objective, the cells were cultured at 37° C. in an incubator, and then CCK-8 was divided among the wells by allocating 10 μl of CCK-8 to each well and the resulting mixture was cultured in an incubator at 37° C. for two hours. Then, the light absorbance was measured with an ELISA measuring instrument.
By the method described in Example 3, miR-BART5-5p mimic or miR-BART15-3p mimic (10 nM) were transfected to the AGS cell strain, and the effect thereof on cell growth was investigated over time.
miR-BART5-5p, miR-BART15-3p, and miR-BART20-3p were transfected to the AGS cell strain (1×10^3 cells/well) in a concentration of 1, 3, 10, and 30 nM, and the effect on cell growth was investigated. Immediately after the AGS cell strain was divided into a 96-well plate such that 1×10^3 AGS cells were allocated to each well, a synthesized miRNA was transfected by using G-fectin. Seventy two hours after the transfection, CCK-8 was divided among the wells by allocating 10 μl of CCK-8 to each well, and the resulting mixture was cultured at 37° C. in an incubator for two hours.

[2] = test system: AGS cell strain; experiment: Measurement of apoptosis (Annexin V staining, FACS); conditions: for Relative Apoptotic cell: mimic 10 nM, 10 uM 5-FU 24 h after transfection, then 48 hours, Annexin V, relative to scrambled control (=1), n=9; for effect on cell growth and apoptosis (summary statement): mimics transfected to AGS, tumor cell strain not infected with EBV
Protocol: Immediately after the AGS cell strain, which is an EBV-negative cell strain, was divided was divided into a 6-well plate such that 2×10^5 AGS cells were allocated to each well, a synthesized miRNA (10 nM) was transfected by using G-fectin and the resulting mixture was cultured at 37 t in an incubatorTwenty four hours after the transfection, 10 uM of 5-FU was treated and the resulting mixture was cultured in an incubator at 37° C. for 48 hours. The cells were detached by using Trypsin-EDTA and washed with PBS two times. Afterwards, the cells were treated with a PE Annexin V Apoptosis Detection Kit and the changed ratio of apoptotic cell was investigated by FACS (FIG. 7).
Immediately after the AGS cell strain, which is an EBV-negative cell strain, is divided into a 6-well plate such that 2×10^5 AGS cells were allocated to each well, a synthesized miRNA (10 nM) was transfected by using G-fectin and the resulting mixture was cultured at 37° C. Twenty four hours after the transfection, 10 uM of 5-FU, which is an anti-cancer agent, was treated and the resulting mixture was cultured in an incubator at 37° C. for 48 hours. The cells were detached by using Trypsin-EDTA and washed with PBS two times. Afterwards, the cells were treated with a PE Annexin V Apoptosis Detection Kit and the ratio of cells where apoptosis took place was measured by FACS.

[3] = test system: AGS cell strain; experiment: Effect on cell cycle (propidium iodide staining, FACS, sub G1); conditions: for Relative Sub G1: mimic 10 nM, 10 uM 5-FU 24 h after transfection, then 48 hours, relative to scrambled control (=1)
Protocol: The AGS cells were divided into a 96-well plate such that 2×10^5 AGS cells were allocated to each well, and synthesized miRNAs (10 nM) were transfected and cultured at 37° C. in an incubator. Twenty four hours after the transfection, 10 uM of 5-FU, which is an anti-cancer agent, was treated in one case or not treated in another case, and then the resulting mixture was cultured in an incubator at 37° C. for 48 hours. The cells were detached by using Trypsin-EDTA and washed with PBS two times.
Immediately after the AGS cell strains, which are EBV-negative cell strains, were divided into a 6-well plate such that 2×10^5 AGS cells were allocated to each well, a synthesized miRNA (10 nM) was transfected by using G-fectin and cultured at 37° C. in an incubator. Twenty four hours after the transfection, 10 uM of 5-FU was treated and the resulting mixture was cultured at 37° C. in an incubator for 48 hours. The cells were detached by using Trypsin-EDTA and washed with PBS two times. Afterwards, DNA was stained by propidium iodide staining and the ratio of cells where cell cycle was changed was investigated by FACS.

[4] = mimic 10 nM, 72 hours after transfection, n=9
[5] = AGS, mimic 10 nM in combination with 10 uM 5-FU

Row | Substance | Relative Cell Growth [1, 4] | Relative Apoptotic cell ([2]; AGS) | effect on cell growth and apoptosis (summary statement) [2] | Relative Sub G1 [3] | also measured
1 | BART5-5p: EBV BART miRNA mimic, double stranded RNA; sense SEQ NO: 17, antisense SEQ NO: 18 (sense CAAGGUGAAUAUAGCUGCCCAUCG; antisense CGAUGGGCAGCUAUAUUCACCUUG; chemistry not given here) | 0.5231 | 1.325 | inhibit cell growth and promote apoptosis | 2.111 | cell growth depending on mimic concentration (onset of inhibition) ([1]; 72 hours after transfection): a tendency to inhibit cell growth beginning at 10 nM; Relative Cell Growth ([1]; mimic 10 nM, 72 hours after transfection, n=9, listed as miR-BART5-5p): inhibited cell growth; cell growth over time ([1]; mimic 10 nM, depending on treatment time): greatly decreased cell growth; ratio of early apoptotic cell [2, 5]: increased; ratio of late apoptotic cell [2, 5]: increased; degree of apoptosis, combination with 5-FU versus sum of single treatments ([2]; AGS, mimic 10 nM plus 10 uM 5-FU): synergetic effect; ratio of early apoptotic cell ([2]; AGS, mimic 10 nM treated alone): increased; ratio of late apoptotic cell ([2]; AGS, mimic 10 nM treated alone): increased; Relative Apoptotic cell ([2]; AGS, listed as 5-5p): significantly higher; ratio of sub G1 after the 5-FU treatment ([3]; mimic 10 nM plus 10 uM 5-FU (Example 6)): greatly increased; Relative Sub G1 ([3]; listed as 5-5p): increased
2 | BART3-3p: EBV BART miRNA mimic, double stranded RNA; sense SEQ NO: 3, antisense SEQ NO: 4 (sense CGCACCACUAGUCACCAGGUGU; antisense ACACCUGGUGACUAGUGGUGCG; chemistry not given here) | 1.135 | 1.111 | – | 0.9648 | –
3 | BART18-3p: EBV BART miRNA mimic, double stranded RNA; sense SEQ NO: 39, antisense SEQ NO: 40 (sense UAUCGGAAGUUUGGGCUUCGUC; antisense GACGAAGCCCAAACUUCCGAUA; chemistry not given here) | 1.393 | 0.8705 | – | 0.9963 | –
4 | BART14-3p: EBV BART miRNA mimic, double stranded RNA; sense SEQ NO: 83, antisense SEQ NO: 84 (sense UAAAUGCUGCAGUAGUAGGGAU; antisense AUCCCUACUACUGCAGCAUUUA; chemistry not given here) | 1.447 | 0.9426 | – | 0.8757 | –
5 | BART1-5p: EBV BART miRNA mimic, double stranded RNA; sense SEQ NO: 9, antisense SEQ NO: 10 (sense UCUUAGUGGAAGUGACGUGCUGUG; antisense CACAGCACGUCACUUCCACUAAGA; chemistry not given here) | 1.141 | 1.08 | inhibit cell growth and promote apoptosis | 0.8028 | Relative Apoptotic cell ([2]; AGS, listed as 1-5p): significantly higher
6 | BART2-5p: EBV BART miRNA mimic, double stranded RNA; sense SEQ NO: 85, antisense SEQ NO: 86 (sense UAUUUUCUGCAUUCGCCCUUGC; antisense GCAAGGGCGAAUGCAGAAAAUA; chemistry not given here) | 1.085 | 1.082 | – | 1.092 | –
7 | BART8-5p: EBV BART miRNA mimic, double stranded RNA; sense SEQ NO: 45, antisense SEQ NO: 46 (sense UACGGUUUCCUAGAUUGUACAG; antisense CUGUACAAUCUAGGAAACCGUA; chemistry not given here) | 1.448 | 0.9757 | – | 1.013 | –
8 | BART20-3p: EBV BART miRNA mimic, double stranded RNA; sense SEQ NO: 75, antisense SEQ NO: 76 (sense CAUGAAGGCACAGCCUGUUACC; antisense GGUAACAGGCUGUGCCUUCAUG; chemistry not given here) | 0.8577 | 1.416 | inhibit cell growth and promote apoptosis | 1.618 | cell growth ([1]; 30 nM, 72 hours after transfection): almost no cell growth; cell growth depending on mimic concentration (onset of inhibition) ([1]; 72 hours after transfection): decreased cell growth, beginning at 10 nm; Relative Cell Growth ([1]; mimic 10 nM, 72 hours after transfection, n=9, listed as miR-BART20-3p): inhibited cell growth; Relative Apoptotic cell ([2]; AGS, listed as 20-3p): significantly higher; Relative Sub G1 ([3]; listed as 20-3p): increased
9 | BART2-3p: EBV BART miRNA mimic, double stranded RNA; sense SEQ NO: 87, antisense SEQ NO: 88 (sense AAGGAGCGAUUUGGAGAAAAUAAA; antisense UUUAUUUUCUCCAAAUCGCUCCUU; chemistry not given here) | 1.433 | 1.062 | inhibit cell growth and promote apoptosis | 1.178 | Relative Apoptotic cell ([2]; AGS, listed as 2-3p): significantly higher

Source: US9243247B2, “Composition for promoting apoptosis or inhibiting cell growth, comprising epstein-barr virus microrna” (Catholic University Industry Academic Cooperation Foundation, priority 2011, dated 2016)
